According to paper PMC3384541 (Cancer discovery, 2012):

Experiments:
[1] = system: HMEC-CA-p110α, HMEC-CA-p110β, HMEC-CA-p110δ; assay type: cell-based, human; settings: isogenic HMEC-CA-p110 lines, serum-free, western blot
HCC1954 tumors = test: Xenograft tumor growth; assay type: in vivo, mice; settings: PTEN wild-type
[2] = system: HCC70, MDA-MB-468, BT549 and PC3 cell lines; test: Western blot of AKT phosphorylation in PTEN-null cancer cell lines; assay type: cell-based, human
panel of 433 kinases = test: KinomeScan kinase selectivity profile; assay type: binding; settings: 10 µM
[3] = system: panel of 422 cancer cell lines; test: High-throughput cell viability assay; assay type: cell-based, human; settings: threshold EC50 < 5 µM, 72 h treatment
HMEC-CA-p110β = test: BacMam-enabled LanthaScreen cellular assay; assay type: cell-based; settings: Homo sapiens, read-out: IC50 in cell culture
In vivo pharmacokinetics = test: In vivo pharmacokinetics; design: species or system mice
Rat1-CA-p110β tumors [4] = test: In vivo pharmacodynamics, pAKT in tumor lysates; design: species or system mice; settings: 1 hour after single IP injection 10 mg/kg
Rat1-CA-p110α tumors [5] = test: In vivo pharmacodynamics, pAKT in tumor lysates; design: species or system mice; settings: after single IP injection 10 mg/kg
Rat1-CA-p110β tumors [6] = test: Xenograft tumor growth; assay type: in vivo, mice; settings: IP 20 mg/kg once or twice daily
Rat1-CA-p110α tumors [7] = test: Xenograft tumor growth; assay type: in vivo, mice; settings: IP 20 mg/kg once or twice daily
HCC70 tumors = test: Xenograft tumor growth; assay type: in vivo, mice; settings: PTEN-deficient; IP, 20 mg/kg, BID
PC3 tumors = test: Xenograft tumor growth; assay type: in vivo, mice; settings: PTEN-deficient; IP, 20 mg/kg, BID
[8] = single IP injection 10 mg/kg, tumor-bearing mice

With `Cc1cc(C(C)Nc2ccccc2)c2nc(N3CCOCC3)cc(=O)n2c1` (centres unmarked) [TGX-221] the “inhibition of phosphorylation of AKT at Thr308 and Ser473” value (“inhibition of phosphorylation of AKT” below) [1] was “in a dose-dependent manner”.
With `CS(=O)(=O)N1CCN(Cc2cc3nc(-c4cccc5[nH]ncc45)nc(N4CCOCC4)c3s2)CC1` [GDC-0941, reference compound] the tumor growth (HCC1954 tumors; PO, 150 mg/kg, QD) was “responded to treatment”.
In the case of `Cc1ccccc1-n1c(Cn2cnc3c(N)ncnc32)nc2cccc(C)c2c1=O` [IC87114], the “effect on AKT phosphorylation” value [2] is reported as “had much less effect” and the “inhibition of phosphorylation of AKT” value [1] is reported as “in a dose-dependent manner”.
For `Cc1ccc([N+](=O)[O-])cc1S(=O)(=O)N(C)/N=C/c1cnc2ccc(Br)cn12` [PIK-75], the “effect on AKT phosphorylation” value [2] was “had much less effect” and the “inhibition of phosphorylation of AKT” value [1] was “in a dose-dependent manner”.
For `Cc1cc([C@@H](C)Nc2ccccc2C(=O)O)c2nc(N3CCOCC3)cc(=O)n2c1` [KIN-193, (−)2-[1-(7-Me-2-(morpholin-4-yl)-4-oxo-4H-pyrido[1,2-a]pyrimidin-9-yl)ethylamino]benzoic acid], the inhibitor-kinase interaction profile (panel of 433 kinases) was “highly selective in its interaction with PI3Ks”, the “cell lines with PTEN mutations sensitive to compound” value ([3]; 20 out of 57 lines) was 35% and the “cell lines with wild-type PTEN sensitive to compound” value ([3]; 58 out of 365 lines) was 16%. For the same compound, the “effect on AKT phosphorylation” value [2] was “significantly inhibited AKT phosphorylation”, the IC50 (HMEC-CA-p110β) was 100 to 500 nM and the IC50 (In vivo pharmacokinetics; Mus musculus, read-out: IC50 / level reached in vivo) was at most 1000 nM. The “optimal route for robust in vivo exposure” value (In vivo pharmacokinetics; mice) was “intraperitoneal (IP) delivery to be the optimal route”, the “concentrations in CA-p110α- and CA-p110β-driven tumors” value (In vivo pharmacokinetics; single IP injection 10 mg/kg) was “paralleled the plasma concentrations” and the “time by which plasma concentration declined to undetectable levels” value (In vivo pharmacokinetics; [8]) was at most 4 h. The “time of highest plasma concentration” value (In vivo pharmacokinetics; [8]) was 1 h, the “phosphorylation of AKT in tumor lysates” value (Rat1-CA-p110β tumors [4]) was “significantly reduced” and the “phosphorylation of AKT in tumor lysates” value (Rat1-CA-p110α tumors [5]) was “remained unchanged”. The tumor growth (Rat1-CA-p110β tumors [6]) was “significantly impaired”, the tumor growth (Rat1-CA-p110α tumors [7]) was “little effect” and the tumor growth (HCC70 tumors) was “significantly inhibited tumor growth”. For the same compound, the tumor growth (PC3 tumors) was “significantly inhibited tumor growth” and the tumor growth (HCC1954 tumors; IP, 20 mg/kg, BID) was “failed to block the growth”.
